{
  "source": "patent US6054282A",
  "about": "“Method for detecting biological interactions especially in receptor binding assays” (Zeneca Limited, priority 1993, dated 2000)",
  "test_system": "human calcitonin receptor",
  "experiment": "Calcitonin receptor radial partition binding assay, displacement of (3-[125I]iodotyrosyl-22) salmon calcitonin",
  "settings": "1 micromolar salmon calcitonin; MEL cell membranes with cloned human calcitonin receptor; room temperature, 40 minutes; FIG. 3",
  "procedure": "The lysate was transferred to a glass/Teflon homogeniser and given 10 strokes to ensure cell disruption. The homogenate was centrifuged at 3,000 rpm (1100 g) for 10 minutes at 4 deg.C. […] The low-speed supernatant was removed, and the pellet re-suspended in 10 ml of homogenisation buffer and dispersed with 3×10 second treatments with the Polytron homogeniser, followed by low-speed centifugation as described above. The supernatants from both spins were combined. This was then centrifuged for 30 minutes at 33,000 rpm (100,000 g) at 4 deg C. in an L7 Ultracentrifuge (Beckman) using a Ti75 head. The pellet was re-suspended in 20 mM HEPES, pH 7.4, and re-centrifuged. This pellet was then re-suspended as before and treated with 10 strokes of the glass/Teflon homogeniser.\nProtein determination was by the […] method of the Pierce Chemical Co., using their recommended protocol and bovine serum albumin (BSA) as a standard. Membranes were diluted to a stock concentration of 0.08 mg/ml protein, and stored at -70 deg. C.\nTo a 30×43 cm glass fibre filter mat (Tomtec RG) was added 4 microlitres of receptor preparation to 2,304 positions in a rectangular array. This was allowed to dry for 2 hours at room temperature. […]\nThe mat was allowed to dry completely and was exposed to a storage phosphor screen (Molecular Dynamics) for 3 hours and analysed using a PhosphorImager SF (Molecular Dynamics).",
  "data": [
    {"substance": "calcitonin [salmon calcitonin]", "values": [
      {"measurement": "inhibition of binding of [125I] salmon calcitonin (central spot, PhosphorImager)", "value": "full inhibition of binding"}
    ]}
  ]
}
